Measurements from patent US20240299387A1, “HETEROCYCLIC EGFR INHIBITORS FOR USE IN THE TREATMENT OF CANCER” (Blueprint Medicines Corporation, priority 2021, published 2024).

Tests used:
[1] = target: T1, EGFR L858R T790M in NCI-H1975 cell line (Homo sapiens, UniProt P00533, L858R/T790M); test: NCI-H1975 pEGFR AlphaLISA assay; format: cell-based; settings: NCI-H1975 cells (EGFR L858R T790M), p-EGFR (Tyr1068), 4-5 hours incubation; read-out: Ext pEGFR H1975 GMean IC50 (nM) Protocol: @Pharmaron AlphaLISA (Num)
T1 construct: host or cells: NCI-H1975
Procedure: The NCI-H1975 cells were seeded at 12.5K/well in 22 μL into 384 well opti plate (PerkinElmer, 6007299) and adhering overnight at 37C/5% CO2. On the next day, the test compounds and DMSO control were added into H1975 cell plate followed by incubation at 37C/5% CO2 for 4-5 hours. […] Then 5 μL of a donor bead mix was added to each well followed by overnight incubation at room temperature in dark. On the next day, the plate was read at a compatible plate reader to obtain pEGFR signal. Percent of pEGFR inhibition was plotted against log concentration of compounds to generate IC50 values.

[2] = target: T2, EGFR (L858R T790M C797S) (Homo sapiens, UniProt P00533, C797S/L858R/T790M); test: Biochemical EGFR inhibition assay (Caliper mobility shift), EGFR LRTMCS mutant; settings: LRTMCS (PH) IC50 (nM) @ 1 mM ATP (Num)
T2 construct: purchased SignalChem E10-122VG
Procedure: Reactions proceeded until between 10% to 20% total peptides were phosphorylated at room temperature (25° C.) and were terminated with 35 mM 2,2′,2″,2′″-(ethane-1,2-diyldinitrilo)tetraacetic acid (EDTA). Product was detected using the Caliper mobility shift detection method where the phosphorylated peptide (product) and substrate were electrophoretically separated and measured. Percent activity was plotted against log concentration of compound and points to generate an apparent IC50.

T1 sequence (P00533 25-1210 T790M/L858R): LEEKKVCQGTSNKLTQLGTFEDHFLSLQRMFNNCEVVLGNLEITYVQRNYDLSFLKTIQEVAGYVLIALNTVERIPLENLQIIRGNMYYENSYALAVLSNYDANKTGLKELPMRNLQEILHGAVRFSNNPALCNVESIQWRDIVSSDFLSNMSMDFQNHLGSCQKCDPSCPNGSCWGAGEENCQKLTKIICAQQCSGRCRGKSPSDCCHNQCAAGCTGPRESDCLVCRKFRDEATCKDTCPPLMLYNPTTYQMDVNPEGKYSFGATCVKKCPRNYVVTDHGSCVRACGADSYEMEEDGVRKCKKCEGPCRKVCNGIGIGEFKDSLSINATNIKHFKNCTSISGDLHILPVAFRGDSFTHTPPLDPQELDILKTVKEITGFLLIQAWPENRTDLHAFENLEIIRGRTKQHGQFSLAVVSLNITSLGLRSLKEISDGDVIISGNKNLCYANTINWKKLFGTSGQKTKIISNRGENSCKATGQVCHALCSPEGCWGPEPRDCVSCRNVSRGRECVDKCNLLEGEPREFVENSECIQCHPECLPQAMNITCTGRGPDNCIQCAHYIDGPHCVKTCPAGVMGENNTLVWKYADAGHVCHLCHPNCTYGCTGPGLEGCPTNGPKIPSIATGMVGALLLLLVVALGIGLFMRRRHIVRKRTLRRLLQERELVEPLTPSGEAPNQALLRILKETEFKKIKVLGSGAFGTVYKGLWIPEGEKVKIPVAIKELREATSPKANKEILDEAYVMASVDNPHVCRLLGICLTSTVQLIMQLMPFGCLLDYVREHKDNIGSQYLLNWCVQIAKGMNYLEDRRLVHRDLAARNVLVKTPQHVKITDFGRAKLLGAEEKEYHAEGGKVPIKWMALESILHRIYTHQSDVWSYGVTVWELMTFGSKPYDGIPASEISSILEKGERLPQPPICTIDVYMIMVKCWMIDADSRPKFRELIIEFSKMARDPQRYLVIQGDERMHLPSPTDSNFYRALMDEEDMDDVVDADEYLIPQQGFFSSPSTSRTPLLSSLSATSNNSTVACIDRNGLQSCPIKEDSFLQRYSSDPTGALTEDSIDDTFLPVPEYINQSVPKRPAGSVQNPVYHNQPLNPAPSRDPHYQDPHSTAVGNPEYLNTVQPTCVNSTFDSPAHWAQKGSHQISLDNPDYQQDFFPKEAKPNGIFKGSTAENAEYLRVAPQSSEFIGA
T2 sequence (P00533 25-1210 T790M/C797S/L858R): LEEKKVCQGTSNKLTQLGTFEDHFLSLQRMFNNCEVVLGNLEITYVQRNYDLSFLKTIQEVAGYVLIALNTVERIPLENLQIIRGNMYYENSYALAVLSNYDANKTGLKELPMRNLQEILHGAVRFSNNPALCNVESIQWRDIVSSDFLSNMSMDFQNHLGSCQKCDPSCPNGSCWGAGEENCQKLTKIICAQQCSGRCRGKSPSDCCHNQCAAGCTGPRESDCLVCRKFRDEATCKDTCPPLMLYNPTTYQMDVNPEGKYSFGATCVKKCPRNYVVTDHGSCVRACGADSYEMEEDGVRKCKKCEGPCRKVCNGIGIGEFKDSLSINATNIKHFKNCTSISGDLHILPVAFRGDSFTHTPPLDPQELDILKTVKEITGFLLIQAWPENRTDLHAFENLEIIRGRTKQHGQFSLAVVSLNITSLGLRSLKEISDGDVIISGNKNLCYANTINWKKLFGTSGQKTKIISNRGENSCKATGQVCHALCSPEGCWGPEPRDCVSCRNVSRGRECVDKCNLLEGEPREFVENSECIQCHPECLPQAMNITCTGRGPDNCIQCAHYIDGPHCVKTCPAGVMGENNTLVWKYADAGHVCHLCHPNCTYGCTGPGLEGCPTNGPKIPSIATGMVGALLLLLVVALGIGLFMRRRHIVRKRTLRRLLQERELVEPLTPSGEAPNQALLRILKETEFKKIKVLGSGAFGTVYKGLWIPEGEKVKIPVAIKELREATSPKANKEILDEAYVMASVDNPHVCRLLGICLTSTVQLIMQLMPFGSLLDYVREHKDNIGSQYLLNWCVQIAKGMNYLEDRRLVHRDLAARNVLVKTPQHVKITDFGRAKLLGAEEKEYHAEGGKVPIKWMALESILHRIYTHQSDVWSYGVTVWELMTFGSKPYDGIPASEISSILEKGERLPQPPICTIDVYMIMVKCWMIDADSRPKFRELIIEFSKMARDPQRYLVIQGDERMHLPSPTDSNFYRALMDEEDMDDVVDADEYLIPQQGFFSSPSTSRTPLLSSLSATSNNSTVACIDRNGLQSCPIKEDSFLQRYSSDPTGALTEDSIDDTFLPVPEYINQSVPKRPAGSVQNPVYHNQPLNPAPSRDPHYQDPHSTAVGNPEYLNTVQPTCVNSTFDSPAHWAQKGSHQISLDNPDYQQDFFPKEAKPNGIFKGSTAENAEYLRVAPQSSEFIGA

SMILES | IC50 [1] [nM] | IC50 [2] [nM]
CC(C)c1ccc(OCCc2cnnn2C)c2cnc(Nc3ccnc(N4CC[C@](C)(O)[C@H](F)C4)n3)cc12 [Example 35, (3R,4S)-3-fluoro-1-(4-((5-isopropyl-8-(2-(1-methyl-1H-1,2,3-triazol-5-yl)ethoxy)isoquinolin-3-yl)amino)pyrimidin-2-yl)-4-methylpiperidin-4-ol] | 30 to 50 | 15 to 20
CNC(=O)c1ncc(C(C)C)c2cc(Nc3ccnc(N4CC[C@@H](O)[C@@](C)(F)C4)n3)ncc12 [Example 64, 6-((2-((3S,4R)-3-fluoro-4-hydroxy-3-methylpiperidin-1-yl)pyrimidin-4-yl)amino)-4-isopropyl-N-methyl-2,7-naphthyridine-1-carboxamide] | > 50 | 15 to 20
[2H]C([2H])([2H])O[C@@H]1CCN(c2nccc(Nc3cc4c(C(C)C)ccc(OCCn5cnnc5)c4cn3)n2)C[C@@H]1F [Example 45, 8-(2-(4H-1,2,4-triazol-4-yl)ethoxy)-N-(2-((3S,4R)-3-fluoro-4-(methoxy-d3)piperidin-1-yl)pyrimidin-4-yl)-5-isopropylisoquinolin-3-amine] | > 50 | 15 to 20
CC(=O)N1CC([C@@H](C)Oc2ccc(C(C)C)c3cc(Nc4ccnc(N5CC[C@@H](O)[C@@](C)(F)C5)n4)ncc23)C1 (single isomer, unassigned) [Example 24, 1-(3-((R)-1-((3-((2-((3S,4R)-3-fluoro-4-hydroxy-3-methylpiperidin-1-yl)pyrimidin-4-yl)amino)-5-isopropylisoquinolin-8-yl)oxy)ethyl)azetidin-1-yl)ethan-1-one or 1-(3-((S)-1-((3-((2-((3S,4R)-3-fluoro-4-hydroxy-3-methylpiperidin-1-yl)pyrimidin-4-yl)amino)-5-isopropylisoquinolin-8-yl)oxy)ethyl)azetidin-1-yl)ethan-1-one] | < 10 | < 15
CC(C)c1cnc(N(C)C)c2cnc(Nc3ccnc(N4CC[C@@H](O)[C@@H](F)C4)n3)cc12 [Example 94, (3S,4R)-1-(4-((8-(dimethylamino)-5-isopropyl-2,7-naphthyridin-3-yl)amino)pyrimidin-2-yl)-3-fluoropiperidin-4-ol] | > 50 | 30 to 100
CC(C)c1cnc(C(=O)N[C@H](C)CF)c2cnc(Nc3ccnc(N4CC[C@@H](O)[C@@](C)(F)C4)n3)cc12 [Example 71, 6-((2-((3S,4R)-3-fluoro-4-hydroxy-3-methylpiperidin-1-yl)pyrimidin-4-yl)amino)-N-((R)-1-fluoropropan-2-yl)-4-isopropyl-2,7-naphthyridine-1-carboxamide] | > 50 | 20 to 30
CC(C)c1cnc(C(=O)NCC(F)F)c2cnc(Nc3ccnc(N4CC[C@@H](O)[C@@](C)(F)C4)n3)cc12 [Example 67, N-(2,2-difluoroethyl)-6-((2-((3S,4R)-3-fluoro-4-hydroxy-3-methylpiperidin-1-yl)pyrimidin-4-yl)amino)-4-isopropyl-2,7-naphthyridine-1-carboxamide] | > 50 | < 15
CC(C)c1cnc(C(=O)NC2CN(CCF)C2)c2cnc(Nc3ccnc(N4CC[C@@H](O)[C@@](C)(F)C4)n3)cc12 [Example 80, 6-((2-((3S,4R)-3-fluoro-4-hydroxy-3-methylpiperidin-1-yl)pyrimidin-4-yl)amino)-N-(1-(2-fluoroethyl)azetidin-3-yl)-4-isopropyl-2,7-naphthyridine-1-carboxamide] | 20 to 30 | < 15
CC(C)c1cnc(C(=O)N[C@H]2C[C@@H](C#N)C2)c2cnc(Nc3ccnc(N4CC[C@@H](O)[C@@](C)(F)C4)n3)cc12 [Example 81, N-((1r,3r)-3-cyanocyclobutyl)-6-((2-((3S,4R)-3-fluoro-4-hydroxy-3-methylpiperidin-1-yl)pyrimidin-4-yl)amino)-4-isopropyl-2,7-naphthyridine-1-carboxamide] | 20 to 30 | < 15
